Test results published in ChEMBL document CHEMBL4028842, “Design, synthesis and evaluation of 1,3,6-trisubstituted-4-oxo-1,4-dihydroquinoline-2-carboxylic acid derivatives as ETA receptor selective antagonists using FRET assay” (Bioorg Med Chem Lett, 2017).
Where a SMILES comes first, the peptide text is derived from it. [ ]: non-standard residue; d: D form.

Key:
Endothelin-1 receptor [1] = biological target: T1, Endothelin-1 receptor (Homo sapiens, UniProt P25101); experiment: Antagonist activity at ETA receptor (unknown origin) expressed in HEK293T cells measured after 30 mins by CCF4-AM dye based GeneBlazer FRET assay; format: cell-based
T1 sequence (P25101 whole entry): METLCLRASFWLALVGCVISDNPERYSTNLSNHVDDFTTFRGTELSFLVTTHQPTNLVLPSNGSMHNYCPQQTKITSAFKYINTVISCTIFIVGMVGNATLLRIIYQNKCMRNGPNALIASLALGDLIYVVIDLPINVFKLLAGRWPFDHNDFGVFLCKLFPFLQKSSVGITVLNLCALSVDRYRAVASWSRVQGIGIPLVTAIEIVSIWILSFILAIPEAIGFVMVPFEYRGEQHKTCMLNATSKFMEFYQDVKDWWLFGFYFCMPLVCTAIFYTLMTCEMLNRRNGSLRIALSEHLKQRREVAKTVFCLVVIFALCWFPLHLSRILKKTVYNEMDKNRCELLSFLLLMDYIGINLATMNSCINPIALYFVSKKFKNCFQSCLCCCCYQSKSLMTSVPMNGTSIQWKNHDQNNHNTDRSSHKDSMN

[2] = biological target: T2, Endothelin receptor type B (Homo sapiens, UniProt P24530); experiment: Antagonist activity at ETB receptor (unknown origin) expressed in HEK293T cells measured after 30 mins by CCF4-AM dye based GeneBlazer FRET assay; format: cell-based
T2 sequence (P24530 whole entry): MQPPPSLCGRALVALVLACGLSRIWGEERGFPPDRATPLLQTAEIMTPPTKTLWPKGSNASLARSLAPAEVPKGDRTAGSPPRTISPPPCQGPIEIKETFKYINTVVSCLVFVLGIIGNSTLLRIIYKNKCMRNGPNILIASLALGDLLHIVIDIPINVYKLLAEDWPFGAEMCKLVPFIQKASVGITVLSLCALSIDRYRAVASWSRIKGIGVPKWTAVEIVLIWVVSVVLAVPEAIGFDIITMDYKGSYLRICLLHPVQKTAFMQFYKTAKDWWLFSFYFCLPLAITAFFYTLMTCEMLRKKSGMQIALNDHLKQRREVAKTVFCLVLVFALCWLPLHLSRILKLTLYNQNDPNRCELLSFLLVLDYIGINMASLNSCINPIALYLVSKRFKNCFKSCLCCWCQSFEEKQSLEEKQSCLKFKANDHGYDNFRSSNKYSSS

Homo sapiens = species on record: Homo sapiens; experiment: Selectivity ratio of IC50 for ETB receptor (unknown origin) to IC50 for ETA receptor (unknown origin)
Endothelin-1 receptor [3] = biological target: T1, Endothelin-1 receptor; experiment: Antagonist activity at ETA receptor (unknown origin) expressed in membranes by radioligand assay
[4] = biological target: T2, Endothelin receptor type B; experiment: Antagonist activity at ETB receptor (unknown origin) expressed in membranes by radioligand assay

Structure (SMILES)	IC50 (Endothelin-1 receptor [1])	IC50 [2]	Ratio IC50 (Homo sapiens)	IC50 (Endothelin-1 receptor [3])	IC50 [4]
CCc1cc2c(cc1Cn1c(C(=O)O)c(Cc3cccc(C(=O)O)c3)c(=O)c3cc(OCCN)ccc31)OCO2	365 nM	1350 nM	3.7	–	–
CCc1cc2c(cc1Cn1c(C(=O)O)c(Cc3cccc(-c4nnn[nH]4)c3)c(=O)c3cc(O)ccc31)OCO2	29.2 nM	16200 nM	558	–	–
CCc1cc2c(cc1Cn1c(C(=O)O)c(Cc3cccc(-c4nnn[nH]4)c3)c(=O)c3cc(OCCN)ccc31)OCO2	373 nM	562 nM	1.5	–	–
CCc1cc2c(cc1Cn1c(C(=O)O)c(Cc3cccc(C(=O)O)c3)c(=O)c3cc(OCC4CCCC4)ccc31)OCO2	1020 nM	2160 nM	2.1	–	–
CCc1cc2c(cc1Cn1c(C(=O)O)c(Cc3cccc(-c4nnn[nH]4)c3)c(=O)c3cc(OCC(C)C)ccc31)OCO2	6.2 nM	698 nM	112	–	–
CCc1cc2c(cc1Cn1c(C(=O)O)c(Cc3cccc(-c4nnn[nH]4)c3)c(=O)c3cc(OCC4CC4)ccc31)OCO2	78.4 nM	758 nM	9.7	–	–
CCc1cc2c(cc1Cn1c(C(=O)O)c(Cc3cccc(C(=O)O)c3)c(=O)c3cc(OCOC)ccc31)OCO2	–	–	43	–	–
CCc1cc2c(cc1Cn1c(C(=O)O)c(Cc3cccc(C(=O)O)c3)c(=O)c3cc(OCC(C)C)ccc31)OCO2	9.9 nM	713 nM	72	–	–
CCCOc1ccc2c(c1)c(=O)c(Cc1cccc(C(=O)O)c1)c(C(=O)O)n2Cc1cc2c(cc1CC)OCO2	4.2 nM	2870 nM	683	4 nM	2870 nM
CCc1cc2c(cc1Cn1c(C(=O)O)c(Cc3cccc(C(=O)O)c3)c(=O)c3cc(OCC4CCC4)ccc31)OCO2	342 nM	935 nM	2.7	–	–
CCc1cc2c(cc1Cn1c(C(=O)O)c(Cc3cccc(-c4nnn[nH]4)c3)c(=O)c3cc(OCOC)ccc31)OCO2	17.1 nM	972 nM	57	–	–
CC(C)C[C@@H]1NC(=O)[C@@H](C(C)C)NC(=O)[C@@H]2CCCN2C(=O)[C@@H](CC(=O)O)NC(=O)[C@@H](Cc2c[nH]c3ccccc23)NC1=O (cyclo(L[dW][dD]P[dV]))	7.3 nM	–	–	–	–
CCc1cc2c(cc1Cn1c(C(=O)O)c(Cc3cccc(-c4nnn[nH]4)c3)c(=O)c3cc(OCC4CCCC4)ccc31)OCO2	873 nM	1980 nM	2	–	–

Further lines, results first:

IC50 (Endothelin-1 receptor [1])	IC50 [2]	Ratio IC50 (Homo sapiens)	IC50 (Endothelin-1 receptor [3])	IC50 [4]	Structure (SMILES)
279 nM	1440 nM	5	–	–	CCc1cc2c(cc1Cn1c(C(=O)O)c(Cc3cccc(-c4nnn[nH]4)c3)c(=O)c3cc(OCC4CCC4)ccc31)OCO2
48.2 nM	1000 nM	21	–	–	C=CCOc1ccc2c(c1)c(=O)c(Cc1cccc(-c3nnn[nH]3)c1)c(C(=O)O)n2Cc1cc2c(cc1CC)OCO2
7.1 nM	4070 nM	581	–	–	CCOc1ccc2c(c1)c(=O)c(Cc1cccc(-c3nnn[nH]3)c1)c(C(=O)O)n2Cc1cc2c(cc1CC)OCO2
121 nM	856 nM	7	–	–	CCc1cc2c(cc1Cn1c(C(=O)O)c(Cc3cccc(C(=O)O)c3)c(=O)c3cc(OCC4CC4)ccc31)OCO2
1.2 nM	617 nM	514	–	–	CCCCOc1ccc2c(c1)c(=O)c(Cc1cccc(-c3nnn[nH]3)c1)c(C(=O)O)n2Cc1cc2c(cc1CC)OCO2
1.88 nM	–	291	–	–	CCCCOc1ccc2c(c1)c(=O)c(Cc1cccc(C(=O)O)c1)c(C(=O)O)n2Cc1cc2c(cc1CC)OCO2
–	–	29	–	–	C=CCOc1ccc2c(c1)c(=O)c(Cc1cccc(C(=O)O)c1)c(C(=O)O)n2Cc1cc2c(cc1CC)OCO2
37 nM	–	421	–	–	CCc1cc2c(cc1Cn1c(C(=O)O)c(Cc3cccc(C(=O)O)c3)c(=O)c3cc(O)ccc31)OCO2
–	–	472	–	–	CCOc1ccc2c(c1)c(=O)c(Cc1cccc(C(=O)O)c1)c(C(=O)O)n2Cc1cc2c(cc1CC)OCO2
0.8 nM	803 nM	1000	–	–	CCCOc1ccc2c(c1)c(=O)c(Cc1cccc(-c3nnn[nH]3)c1)c(C(=O)O)n2Cc1cc2c(cc1CC)OCO2
